Measurements reported in patent US7501512B2, “Chemical compounds” (SmithKline Beecham Corporation, priority 2003, dated 2009).

Columns and labels:
[1] = biological target: MAPKAP2 kinase (MK2) (Homo sapiens, UniProt P49137); assay: MAPKAP2 kinase (MK2) enzyme assay; assay type: biochemical; conditions: 1 nM recombinant MK2, 1 μM ATP, 1 μM peptide substrate; read-out: pIC50 values (converted)
Experimental: Compounds are tested for MAPKAP2 kinase (MK2) inhibitory activity in an assay that measures the MK2 catalyzed transfer of the γ-phosphate from ATP to serine/threonine residues of a biotinylated peptide [NH2-K(biotin)-KLNRTLSVA (SynPep Corporation, USA)]. Compounds under analysis are dissolved in DMSO to 1 mM and serially diluted 3-fold with DMSO in 96 or 384-well polypropylene or polystyrene plates for a total of 10-12 different concentrations. One uL of each concentration is transferred to the corresponding well of a 96 or 384-well, white, polystyrene assay plate. Reactions are performed in a final volume of 26 uL. An ATP solution (10 uL) is added to each well, and the reaction is initiated by the addition of a MK2/peptide mix (15 uL). The ATP solution is made in H2O and consists of 2.6 μM nonradioactive ATP (SigmaUltra) and 6.5 uCi/mL [γ-^33P]-ATP (Amersham Pharmacia Biotech). The MK2/peptide mix consists of 86.7 mM HEPES (SigmaUltra), pH 7.5, 8.67 mM MgCl2 (SigmaUltra), 0.0043% Tween 20, 1.73 mM dithiothreitol (added fresh from frozen 1M stock), 1.73 μM peptide, and 1.73 nM purified recombinant MK2. Final concentrations of the assay components are 50 mM HEPES, pH 7.5, 5 mM MgCl2, 0.0025% Tween 20, 1 mM dithiothreitol, 1 μM ATP, 2.5 μCi/mL [γ-^33P]-ATP, 1 μM peptide substrate, and 1 nM MK2. The reaction is allowed to proceed for 40 minutes and is then terminated by the addition of ‘stop solution’ (20 uL), followed by the addition of ‘bead mix’ (50 uL). […] The plates are allowed to sit for approximately 8 hours and then are quantitated using a TopCount NXF™ (Packard). Alternatively, the plates are allowed to sit for at least approximately 1 hour, centrifuged at 900 rpm for 3 minutes, and then quantitated using a TopCount NXT™ (Packard). […] Percent inhibition of MK2 activity is calculated for each compound concentration using Equation [1] […]
[formula] where Y2 is the baseline percent inhibition, Vmax is the net maximum percent inhibition (baseline subtracted), and K is the IC50. […] The results for each compound are recorded as pIC50, calculated using Equation [3]. pIC50=−log10([…]) (3)

[2] = biological target: T1, hYAK3 (Homo sapiens, UniProt O43781); assay: YAK3 scintillation proximity assay using Ser164 of myelin basic protein as phosphoacceptor; assay type: biochemical; conditions: purified GST-hYak3-His6, 0.001 mM ATP, 4 μM Ser164 peptide; read-out: pIC50 values (converted)
T1 construct: made in house; host or cells: baculovirus expression system in Sf9 cells
T1 sequence (O43781 124-526): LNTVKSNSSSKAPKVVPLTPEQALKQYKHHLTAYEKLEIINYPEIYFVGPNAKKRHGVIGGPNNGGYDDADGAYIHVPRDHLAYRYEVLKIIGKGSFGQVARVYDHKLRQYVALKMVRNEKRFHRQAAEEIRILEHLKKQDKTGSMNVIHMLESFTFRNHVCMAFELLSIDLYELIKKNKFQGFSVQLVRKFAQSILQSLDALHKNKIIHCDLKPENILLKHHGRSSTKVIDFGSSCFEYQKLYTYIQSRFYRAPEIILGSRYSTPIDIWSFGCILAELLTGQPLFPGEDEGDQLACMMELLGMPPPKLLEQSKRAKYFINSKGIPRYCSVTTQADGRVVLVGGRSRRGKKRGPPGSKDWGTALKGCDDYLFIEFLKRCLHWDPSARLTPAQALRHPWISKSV
Experimental: YAK3 Scintillation Proximity Assays Using Ser164 of Myelin Basic Protein as the Phosphoacceptor
The source of Ser164 substrate peptide The biotinylated Ser164, S164A peptide (Biotinyl-LGGRDSRAGS*PMARR-OH), sequence derived from the C-terminus of bovine myelin basic protein (MBP) with Ser162 substituted as Ala162, was purchased from California Peptide Research Inc. (Napa, Calif.), and its purity was determined by HPLC. Phosphorylation occurs at position 164 (marked S* above). The calculated molecular mass of the peptide was 2166 dalton. Solid sample was dissolved at 10 mM in DMSO, aliquoted, and stored at −20° C. until use.
hYAK3: Glutathione-S-Transferase (GST)-hYak3-His6 containing amino acid residues 124-526 of human YAK3 (aa 124-526 of SEQ ID NO 2. in U.S. Pat. No. 6,323,318) was purified from baculovirus expression system in Sf9 cells using Glutathione Sepharose 4B column chromatography followed by Ni-NTA-Agarose column chromatography. Purity greater than 65% typically was achieved. Samples, in 50 mM Tris, 150 mM NaCl, 10% glycerol, 0.1% Triton, 250 mM imidazole, 10 mM β-mercapto ethanol, pH 8.0. were stored at −80° C. until use.
Kinase assay of purified hYAK3: Assays were performed in 96 well (Costar, Catalog No. 3789) or 384 well plates (Costar, Catalog No. 3705). Reaction (in 20, 25, or 40 μl volume) mix contained in final concentrations 25 mM Hepes buffer, pH 7.4; 10 mM MgCl2; 10 mM β-mercapto ethanol; 0.0025% Tween-20; 0.001 mM ATP, 0.1 μCi of [γ-^33P]ATP; purified hYAK3 (7-14 ng/assay; 4 nM final); and 4 μM Ser164 peptide. Compounds, titrated in DMSO, were evaluated at concentrations ranging from 50 μM to 0.5 nM. […] Reactions were incubated for 2 hours at room temperature and were stopped by a 75 ul addition of […] Streptavidin Scintillation Proximity beads (Amersham Pharmacia Biotech, Catalog No. RPNQ 0007) in PBS, pH 7.4, 10 mM EDTA, 0.1% Triton X-100, 1 mM ATP. Under the assay conditions defined above, the Km (apparent) for ATP was determined to be 7.2+/−2.4 μM.

MAPKAP2 kinase (MK2), sequence (P49137 whole entry, species assumed): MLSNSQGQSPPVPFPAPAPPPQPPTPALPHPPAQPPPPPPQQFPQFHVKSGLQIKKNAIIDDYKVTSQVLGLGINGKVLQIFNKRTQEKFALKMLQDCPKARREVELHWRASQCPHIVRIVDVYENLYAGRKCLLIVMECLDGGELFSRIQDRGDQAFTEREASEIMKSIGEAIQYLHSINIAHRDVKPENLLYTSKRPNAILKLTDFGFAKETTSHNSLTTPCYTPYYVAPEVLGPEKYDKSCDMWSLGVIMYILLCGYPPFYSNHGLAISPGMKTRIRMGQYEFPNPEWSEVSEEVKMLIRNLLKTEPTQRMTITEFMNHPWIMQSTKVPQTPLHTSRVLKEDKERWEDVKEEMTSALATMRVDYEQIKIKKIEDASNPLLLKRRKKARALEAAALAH

In the case of `COCCN(C)c1cc2n(c(=O)n1)CCc1cc(OC)ccc1-2` [Iy, 9-Methoxy-2-[(2-methoxy-ethyl)-methyl-amino]-6,7-dihydro-pyrimido[6,1-a]isoquinolin-4-one], the IC50 [1] is reported as 10 to 100 nM.
`COc1ccc2c(c1)CCn1c-2cc(NCCN2CCCC2)nc1=O` [Iv, 9-Methoxy-2-(2-pyrrolidin-1-yl-ethylamino)-6,7-dihydro-pyrimido[6,1-a]isoquinolin-4-one] was tested, and the IC50 [1] was 10 to 100 nM.
Work on `COc1ccc2c(c1)CCn1c-2cc(Nc2ccccc2Br)nc1=O` [Ie, 2-(2-Bromo-phenylamino)-9-methoxy-6,7-dihydro-pyrimido[6,1-a]isoquinolin-4-one] yielded an IC50 [2] of 102 to 1000 nM.
Work on `COc1ccc2c(c1)CCn1c-2cc(NCCN(C)C)nc1=O` [Iw, 2-(2-Dimethylamino-ethylamino)-9-methoxy-6,7-dihydro-pyrimido[6,1-a]isoquinolin-4-one] yielded an IC50 [2] of 10.2 to 100 nM.
For `COc1ccc(CNc2cc3n(c(=O)n2)CCc2cc(OC)ccc2-3)cc1` [Iz, 9-Methoxy-2-(4-methoxy-benzylamino)-6,7-dihydro-pyrimido[6,1-a]isoquinolin-4-one], the IC50 [2] was 102 to 1000 nM.
Molecule `COc1ccc2c(c1)CCn1c-2cc(Nc2cccc(S(N)(=O)=O)c2)nc1=O` [If, 3-(9-Methoxy-4-oxo-6,7-dihydro-4H-pyrimido[6,1-a]isoquinolin-2-ylamino)-benzenesulfonamide] has an IC50 [1] of 102 to 1000 nM.
`COc1ccc2c(c1)CCn1c-2cc(Nc2c(OC)cccc2OC)nc1=O` [Ia, 2-(2,6-Dimethoxy-phenylamino)-9-methoxy-6,7-dihydro-pyrimido[6,1-a]isoquinolin-4-one] showed an IC50 [2] of 10.2 to 100 nM.
